Assay results: US20230295201A1 (Gilead Sciences, Inc., priority 2020, published 2023)
Read-outs that look alike come from different tables or passages of the source.

What was measured:
[1] = test system: RSV A2; assay: RSV NHBE EC50 (RSV A2 antiviral assay in normal human bronchial epithelial cells); type: cell-based; details: NHBE cells, RSV A2, 4 days, read-out: RSV NHBE EC50
[2] = test system: HRV14; assay: HRV14 HELA EC50 (cytopathic effect in H1-HeLa cells); type: cell-based; details: 96 h, read-out: HRV14 HELA EC50
Experimental: (§1) H1-HeLa cells, cultured in complete RPMI 1640 medium containing 10% heat-inactivated FBS and 1% Penicillin/Streptomycin, were seeded in 96 well plates at 5000 cells/well one day prior to compound dosing and infection. The antiviral activity of each compound was measured in triplicate. Compounds were added directly to the cell cultures in serial 3-fold dilutions using the HP300 digital dispenser (Hewlett Packard, Palo Alto, CA) immediately prior to infection. The plates were transferred to BSL-2 containment and 100 μL of 1/4000 dilution of HRV14 virus stock was added to each well containing cells and serially diluted compounds. Each plate included 6 wells of infected untreated cells and 6 wells of cells containing 5 μM Rupintrivir that served as 0% and 100% virus inhibition control, respectively. Following the infection, test plates were incubated for 96 h in a tissue culture incubator set to 37° C./5% CO2. Following incubation, the H1-HeLa cells were removed from incubation and allowed to equilibrate to 25° C. Cell viability was determined by removing 100 μL of culture medium and adding 100 μL of Cell-Titer Glo viability reagent. The mixtures were incubated on a shaker for 10 minutes at 25° C., and the luminescence signal was quantified on an Envision luminescence plate reader.

[3] = test system: HRV1a; assay: HRV1A HELA EC50 (cytopathic effect in H1-HeLa cells); type: cell-based; details: 96 h, read-out: HRV1A HELA EC50
Experimental: as §1, with “HRV1a” for “HRV14”

[4] = test system: HRV16; assay: HRV16 HELA EC50 (cytopathic effect in H1-HeLa cells); type: cell-based; details: 96 h, H1-HeLa cells, 33° C., read-out: HRV16 HELA EC50
Procedure, shortened: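 H1-HeLa cells seeded one day before, given 3-fold serial compound dilutions in triplicate just prior to infection with pre-titrated virus. Incubated 96 h at 33 °C/5% CO2; protection from cytopathic effect read as viability by CellTiter-Glo luminescence, normalised to infected untreated (0%) and uninfected (100%) controls.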

[5] = test system: RSV strain A2; assay: RSV HEp-2 EC50 (infectious cytopathic cell protection assay); type: cell-based; details: HEp-2 cells, RSV A2, 4 days, read-out: RSV HEp-2 EC50
Procedure, shortened: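 HEp-2 cells mixed with titered RSV A2 at 50,000 cells/ml were added to plates holding 3-fold serial compound dilutions in DMSO, then incubated 4 days at 37° C. Cytoprotection was read as cell viability by CellTiter-Glo luminescence and converted to percent inhibition against 0% and 100% inhibition controls.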

[6] = test system: HRV99; assay: HRV99 EC50; type: cell-based
[7] = test system: HRV10; assay: HRV10 HELA EC50; type: cell-based
[8] = test system: Dengue serotype 2 New Guinea C (NGC) strain; assay: DENV-2 Huh-7 EC50 (qPCR in Huh7 cells); type: cell-based; details: Dengue virus, DENV2, Huh-7, 48 h
Experimental: Huh7 (Human hepatocarcinoma 7) cells were maintained in 10% FCS-containing DMEM complete media. On the day of the assay, cells were trypsinized (0.1% Trypsin-EDTA), washed and infected for 2 hours in serum-free DMEM with Dengue serotype 2 New Guinea C (NGC) strain at MOI=0.1 with gentle agitation at 37° C. After 2 hours, cells were washed with serum-free media and suspended in 10% FCS-containing DMEM (Gibco, supplemented with sodium pyruvate, NEAA, Penicillin-Streptomycin). 10^5 cells were plated in triplicate in 96-well plates with compounds dispensed at graded doses (Hewlett-Packard D300 Digital Dispenser). All wells were normalized to 0.25% DMSO. At 48 hours, cells were washed with 1×PBS and all supernatants removed. Total RNA was extracted using RNEasy 96 plates (Qiagen) and used to generate first-strand cDNA using XLT cDNA 5×Supermix (QuantaBio). cDNA was used as a template in a Taqman qPCR duplex reaction specific to DENV2 viral and GAPDH gene expression. EC50 values were determined using Prism Graphpad software, with normalization to a positive control and no compound negative control wells.

[9] = test system: RSV A strain A2; assay: RSV HAE EC50 (intracellular RSV RNA by real-time PCR in HAE cells); type: cell-based; details: read-out: RSV HAE EC50
Experimental: HAE cells are cultured at the air-liquid interface and have an apical side that is exposed to the air and a basal side that is in contact with the medium. Prior to experimentation, HAE were removed from their agar-based shipping packaging and were acclimated to 37° C./5% CO2 overnight in 1 ml of HAE Assay medium (AIR-100-MM, Mattek Corp). HAE were prepared for infection by washing the apical surface twice with 400 μL of PBS (either utilizing direct pipetting methods or by running each transwell through a trough containing PBS) to remove the mucus layer. Apical chambers were drained of PBS and tapped gently onto absorbent material to remove as much PBS as possible. After washing, the cells were transferred to fresh HAE maintenance media containing 4-fold serially diluted compound, delivered to the basal side of the cell monolayer, and apically infected with 100 μL of a 1:600 dilution of RSV A strain A2 1000× stock (ABI, Columbia, MD, cat #10-124-000) in HAE assay medium for 3 hours at 37° C. in 5% CO2. The virus inoculum was removed and the apical surface of the cells was washed 3 times with PBS using either method previously described. The cells were then cultured in the presence of compound for 3 days at 37° C. Following the incubation, total RNA was extracted from the HAE cells using a MagMAX-96 Viral RNA isolation kit (Applied Biosystems, Foster City, CA, Cat #AM1836) and intracellular RSV RNA was quantified by real-time PCR. Approximately 25 ng of purified RNA was added to a PCR reaction mixture that contained 0.9 μM RSV N Forward and RSV N Reverse primers, 0.2 μM RSV N Probe and 1×Taqman RNA-to-Ct 1-Step Kit (Applied Biosystems, Foster City, CA, Cat #4392938). RNA levels were normalized using a Tagman GAPDH control primer set (Applied Biosystems, Foster City, CA, Cat #402869). Real-Time PCR Primers and Probe Used in the RSV A2 HAE Antiviral Assay: […]

[10] = HEp-2 CC50 (cytotoxicity, Cell-Titer Glo); type: cell-based; details: human; uninfected HEp-2 cells, 4-5 days
Experimental: The same protocol as for the determination of antiviral activity is used for the measurement of compound cytotoxicity except that the cells are not infected with RSV. Instead, an uninfected cell mixture at the same density is added at 20 ul/well to plates containing prediluted compounds, also at 100 nL/sample. Assay plates are then incubated for 4 days followed by a cell viability test using the same CellTiter Glo reagent addition and measurement of luminescent readouts.

[11] = test system: DENV2 replicon; assay: DENV-2 Huh-7 Rep EC50 (replicon luminescence); type: cell-based; details: Dengue virus, DENV2, Huh-7, 48 h, Huh-7 replicon cells, 48 hours; read-out: DENV-2 Huh-7 Rep EC50
Procedure, shortened: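 Huh-7 cells carrying a DENV2 replicon, 5,000 cells/well, were incubated with dosed compounds for 48 h at 37° C. EnduRen live-cell substrate was added 1.5 h before luminescence reading. EC50 came from dose-response against DMSO-only wells.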

[12] = in vitro; details: human
Experimental: HEp-2 (1.5×10^3 cells/well) and MT-4 (2×10^3 cells/well) cells were plated in 384-well plates and incubated with the appropriate medium containing 3-fold serially diluted compound ranging from 15 nM to 100,000 nM. Cells were cultured for 4-5 days at 37° C. Following the incubation, the cells were allowed to equilibrate to 25° C., and cell viability was determined by adding Cell-Titer Glo viability reagent. The mixture was incubated for 10 min, and the luminescence signal was quantified using an Envision plate reader. Untreated cell and cells treated at 2 μM puromycin (Sigma, St. Louis, MO) serve as 100% and 0% cell viability control, respectively.

[13] = in vitro; details: human; remark: listed apart in the source
[14] = human respiratory syncytial virus, NHBE, 96 h
[15] = human respiratory syncytial virus, HEp-2, 96 h

Row | Compound | EC50 [1, 14] | EC50 [4] | EC50 [5, 15] | CC50 [10] | EC50 [11] | CC50 [12] | other results
1 | C[C@H](NP(=O)(OC[C@@]1(C#N)O[C@@H](c2ccc3c(N)ncnn23)[C@H](O)[C@@H]1O)Oc1ccccc1)C(=O)OCC1CCC1 (mixture of isomers) [Example 2, (2S)-cyclobutylmethyl 2-(((((2R,3S,4R,5S)-5-(4-aminopyrrolo[2,1-f][1,2,4]triazin-7-yl)-2-cyano-3,4-dihydroxytetrahydrofuran-2-yl)methoxy)(phenoxy)phosphoryl)amino)propanoate] | 122 nM | 353 nM | 56 nM | – | – | – | EC50 [2]: 340 nM; EC50 [3]: 106 nM; EC50 [6]: 708 nM; EC50 [7]: 114 nM
2 | C[C@H](NP(=O)(OC[C@@]1(C#N)O[C@@H](c2ccc3c(N)ncnn23)[C@H](O)[C@@H]1O)Oc1ccccc1)C(=O)OC1CCCCCCC1 (single isomer, unassigned) [Example 173] | – | – | – | – | – | – | EC50 [8]: 1210 nM; EC50 [1]: 282 nM; EC50 [5]: 156 nM; EC50 ([9]; human respiratory syncytial virus, HAE, 72 h): 22 nM
3 | CC(C)C(=O)O[C@H]1[C@H](c2ccc3c(N)ncnn23)O[C@](C#N)(CO[P@@](=O)(N[C@@H](C)C(=O)OC2CCCCC2)Oc2ccccc2)[C@H]1O (single isomer, unassigned) [Example 205] | 27 nM | 417 nM | 101 nM | 58.6 µM | 6.1 µM | – | –
4 | CC(C)C(=O)O[C@H]1[C@@H](O)[C@H](c2ccc3c(N)ncnn23)O[C@]1(C#N)CO[P@@](=O)(N[C@@H](C)C(=O)OC1CCCCC1)Oc1ccccc1 (single isomer, unassigned) [Example 206] | 62 nM | – | 85 nM | 55.2 µM | – | 16.6 µM | –
5 | CC(C)OC(=O)[C@H](C)N[P@](=O)(OC[C@@]1(C#N)O[C@@H](c2ccc3c(N)ncnn23)[C@H](OC(=O)C(C)(C)C)[C@@H]1O)Oc1ccccc1 (single isomer, unassigned) [Example 238] | 41 nM | 731 nM | 91 nM | > 50 µM | 9.71 µM | 45 µM | CC50 [13]: > 50 µM
6 | CC(C)OC(=O)[C@H](C)N[P@](=O)(OC[C@@]1(C#N)O[C@@H](c2ccc3c(N)ncnn23)[C@H](O)[C@@H]1OC(=O)C(C)(C)C)Oc1ccccc1 (single isomer, unassigned) [Example 239] | 54 nM | 1120 nM | 148 nM | > 50 µM | 25.4 µM | > 50 µM | CC50 [13]: > 50 µM
7 | CC(C)OC(=O)[C@H](C)N[P@](=O)(OC[C@@]1(C#N)O[C@@H](c2ccc3c(N)ncnn23)[C@H](O)[C@@H]1OC(=O)C(C)C)Oc1ccccc1 (single isomer, unassigned) [Example 241] | 190 nM | – | 293 nM | > 50 µM | 15.5 µM | > 50 µM | –
8 | CC1CCC(OC(=O)C(C)NP(=O)(OCC2(C#N)OC(c3ccc4c(N)ncnn34)C(O)C2O)Oc2ccccc2)CC1 (stereo not drawn) [Example 143] | – | – | – | – | – | – | EC50 [1]: 53 nM; EC50 [5]: 142 nM; EC50 ([9]; HAE cells, RSV A2, 3 days): 157 nM
9 | CCOC(=O)[C@H](C)N[P@](=O)(OC[C@@]1(C#N)O[C@@H](c2ccc3c(N)ncnn23)[C@@H]2OC(OCC)O[C@@H]21)Oc1ccccc1 (stereo partly drawn) [Example 233, ethyl ((S)-(((3aS,4R,6S,6aS)-6-(4-aminopyrrolo[2,1-f][1,2,4]triazin-7-yl)-4-cyano-2-ethoxytetrahydrofuro[3,4-d][1,3]dioxol-4-yl)methoxy)(phenoxy)phosphoryl)-L-alaninate] | > 4640 nM | 3350 nM | 1750 nM | > 50 µM | 35.8 µM | – | –
10 | COC(=O)[C@H](C)N[P@](=O)(OC[C@@]1(C#N)O[C@@H](c2ccc3c(N)ncnn23)[C@H](OC(=O)C(C)C)[C@@H]1O)Oc1ccccc1 [Example 250, (2S,3R,4S,5R)-2-(4-aminopyrrolo[2,1-f][1,2,4]triazin-7-yl)-5-cyano-4-hydroxy-5-((((S)—(((S)-1-methoxy-1-oxopropan-2-yl)amino)(phenoxy)phosphoryl)oxy)methyl)tetrahydrofuran-3-yl isobutyrate] | 51 nM | 1180 nM | 69 nM | > 50 µM | – | – | –
